The values below are quoted from earlier work in patent publication US20190259474A1, “GAN-CNN FOR MHC PEPTIDE BINDING PREDICTION” (REGENERON PHARMACEUTICALS, INC., priority 2018, published 2019).

Data set [1] has as its system MHC-I protein complex encoded by HLA allele A829:02. Particulars: HLA A829:02; category transformed from IC50. Note: key: binding (1); not binding (−1).
In data set [2] the target is MHC-I protein complex encoded by HLA allele A*03:01 (Homo sapiens, UniProt P04439). Particulars: HLA A*03:01; category transformed from IC50. Note: key: binding (1); not binding (−1).
For data set [3], the system named is MHC-I protein complex encoded by HLA allele C*16:01. The following applies: HLA C*16:01; category transformed from IC50. Note: key: binding (1); not binding (−1).
In data set [4] the test system is MHC-I protein complex encoded by HLA allele B*14:02. Particulars: HLA B*14:02; category transformed from IC50. Note: key: binding (1); not binding (−1).
Data set [5] deals with MHC-I protein complex encoded by HLA allele A*02:01 (Homo sapiens, UniProt P04439, D140Y/D185E/D98H/E176V/E277Q/G131W/G231S/I119V/I121R/I166T/I218V/L300P/L318F/N151K/N90K/P208A/P217A/Q86G/Q94H/R138H/R169H/T345S). Particulars: HLA A*02:01; category transformed from IC50.
The subject of data set [6] is MHC-I protein complex encoded by HLA allele B*48:01. The following applies: HLA B*48:01; category transformed from IC50.
The subject of data set [7] is MHC-I protein complex encoded by HLA allele B*58:01. Particulars: HLA B*58:01; category transformed from IC50.
Data set [8] deals with MHC-I protein complex encoded by HLA allele A*68:02. Particulars: HLA A*68:02; category transformed from IC50.
The target in data set [9] is MHC-I protein complex encoded by HLA allele A*02:03 (Homo sapiens, UniProt P04439, A173T/D140Y/D185E/D98H/E277Q/G131W/G231S/I119V/I121R/I166T/I218V/L180W/L300P/L318F/N151K/N90K/P208A/P217A/Q86G/Q94H/R138H/R169H/T345S). The following applies: HLA A*02:03; category transformed from IC50. Note: key: binding (1); not binding (−1).
Data set [10] has as its target MHC-I protein complex encoded by HLA allele A*02:06 (Homo sapiens, UniProt P04439, D140Y/D185E/D98H/E176V/E277Q/F33Y/G131W/G231S/I119V/I121R/I166T/I218V/L300P/L318F/N151K/N90K/P208A/P217A/Q86G/Q94H/R138H/R169H/T345S). Particulars: HLA A*02:06; category transformed from IC50.
For data set [11], the system named is MHC-I protein complex encoded by HLA allele A*02:02. The following applies: HLA A*02:02; category transformed from IC50.
Data set [12] deals with MHC-I protein complex encoded by HLA allele C*03:04. The following applies: HLA C*03:04; category transformed from IC50.
The test system of data set [13] is MHC-I protein complex encoded by HLA allele B*44:03. The following applies: HLA B*44:03; category transformed from IC50. Note: key: binding (1); not binding (−1).

Consider AAAAAAAALY (MHC-I binding peptide), for which, in data set [1], the “Binding Category” value is 1.
Turning to AAAAALQAK (MHC-I binding peptide), the “Binding Category” value in data set [2] is listed as 1.
Regarding AAAAALWL (MHC-I binding peptide), the “Binding Category” value in [3] was 1.
As for AAAAARAAL (MHC-I binding peptide), the “Binding Category” value in [4] is recorded as −1.
With AAAAEEEEE (MHC-I binding peptide), the “Binding Category” value in data set [5] is −1.
With AAAAFEAAL, in data set [6], the “Binding Category” value is 1.
In the case of AAAAPYAGW (MHC-I binding peptide), the “Binding Category” value in [7] is 1.
AAAARAAAL (MHC-I binding peptide): the “Binding Category” value in data set [4] is given as 1.
Regarding AAAATCALV (MHC-I binding peptide), the “Binding Category” value in data set [5], in [8], in data set [9], in data set [10] and in data set [11] was 1 each time.
In the case of AAADAAAAL (MHC-I binding peptide), the “Binding Category” value in data set [12] is 1.
Regarding AAADFAHAE (MHC-I binding peptide), the “Binding Category” value in data set [13] was −1.
For the sequence AAADPKVAF (MHC-I binding peptide), in data set [3], the “Binding Category” value was 1.
